This note sets out measurements from publication PMC13659687, “Cloning, expression, tertiary structure, activity characteristics, design of inhibitor, hydrolysis and inhibition mechanisms analysis of carp adipose triglyceride lipase (ATGL)” (Food Chemistry: Molecular Sciences, 2026).

Where a SMILES comes first, the peptide text is derived from it.

The nature of the data set: Maximum solubility of the small peptide. Conditions: neutral pH. It is filed as physicochemical.

As to `CC[C@H](C)[C@H](NC(=O)[C@H](CC(C)C)NC(=O)[C@@H](N)CCCCN)C(=O)N[C@@H](CCSC)C(=O)N[C@H](C(=O)O)C(C)C` [Lys-Leu-Ile-Met-Val] (H-KLIMV-OH), the maximum solubility result (4 °C) is reported as “approximately 0.4 mg/mL” and the maximum solubility entry (room temperature) is given as “approximately 0.7 mg/mL”.
